The values below come from US12533350B2, “Use of melanocortin-1 receptor agonist” (TANABE PHARMA CORPORATION, priority 2022, dated 2026).

The structures appear in SMILES notation.

Experiment [1] concerns bleomycin (BLM)-induced systemic sclerosis (SSc) model: skin fibrosis and lung inflammation. The procedure: The back of mice was shaved, and the middle of the back was marked with oil-based red ink. Phosphate-buffered saline (PBS) or BLM (Nippon Kayaku) (0.15 mg/0.1 mL per animal) was subcutaneously injected at the marked site once daily from day 0 to day 25. Compound A solutions at 0.1 mL/10 g of body weight were orally administered once daily (approximately 2 hours before the BLM injection) for 29 consecutive days from day 0 until the day before the end of evaluation (day 28).
On day 29, mice were euthanized by inhalation anesthesia with isoflurane, and whole blood and back skin samples were collected. The left lung was dissected, weighed, and immersed in RNAlater solution (Qiagen). The collected blood was separated into serum. The injection site of skin was excised, weighed (wet weight) and immersed in 0.5 mol/L acetic acid solution containing 0.3 mg/mL pepsin to solubilize collagen. The collagen content of the solubilized sample was explored using the QuickZyme Soluble Collagen Assay kit (QuickZyme Biosciences), and absorbance was determined by a microplate reader (VERSAmax, Molecular Devices, LLC). Serum levels of surfactant protein D (SP-D) were assayed using the Rat/Mouse SP-D kit YAMASA EIA (Yamasa Corporation), and absorbance was determined by a microplate reader (VERSAmax, Molecular Devices, LLC). Total RNA of lungs was isolated using RNeasy 96 Universal Tissue Kit (Qiagen) according to the manufacturer's instructions. Real-time PCR was performed using the One Step SYBR PrimeScript PLUS RT-PCR Kit (Takara Bio Inc.) and ABI PRISM 7900HT Real Time PCR System (Applied Biosystems). Takara perfect real time primer pairs (Takara Bio Inc.) were used to analyze the gene expression of chemokine Cc12 (also named as monocyte chemotactic protein-1 (Mcp-1, MA066003)), interleukin-6 (IL-6, MA039013), and hypoxanthine phosphoribosyltransferase (Hprt, MA031262). Quantification was performed using the comparative CT (cycle threshold) method employing Hprt as the housekeeping gene. A serum concentration of endothelin 1 (ET-1) was assayed using Quantikine Endothelin-1 (R & D systems) and the absorbance was measured by the microplate reader (VERSAmax, Molecular Devices, LLC).
Therefore, differences in body weight at each time point were analyzed between the PBS_vehicle and BLM_vehicle groups using Student's t test.

Experiment [2] concerns lung tissue gene expression in BLM-induced SSc model. Particulars: 0.3 mg/kg. As for the experimental part: Total RNA of mouse lung tissue samples of PBSY_vehicle (control group without disease), BLM_vehicle (control group with disease), and BLM_Compound A (0.3 mg/kg) obtained from the BLM-induced SSc model (prophylactic evaluation) was used for analysis. The purity, concentration, and quality of the RNA samples were confirmed with NanoDrop 2000 (Thermo Fisher Scientific) and Agilent 2100 bioanalyser (Agilent Technologies). The RNA was then Cy3-labeled using a Low Input Quick Amp Labeling Kit, one-color (Agilent Technologies). Labeled cRNA samples were fragmented, and then hybridized with the Agilent SurePrint G3 Mouse GE v2 8×60 K Microarray (Agilent Technologies) using a Gene Expression Hybridization Kit (Agilent Technologies). After hybridization, the microarray was washed with the Gene Expression Wash Buffers Pack (Agilent Technologies) and imaged with a scanner to detect the signals. Signal intensities were evaluated with Agilent Feature Extraction software 12.0.
Bioinformatics analysis in this study was performed with software, including GeneSpring GX 14.9.1, IPA 2019 autumn, and Microsoft Excel 2010. Genes that fluctuated ≥2 fold in BLM_vehicle group in comparison with those of the PBS_vehicle group and that satisfied a p-value <0.05 of the moderated t-test were defined as “differentially expressed genes (DEGs) in the disease model”. Among DEGs, the genes in the Compound A treatment group that fluctuated ≥1.5 fold in the opposite direction and met a p-value <0.05 of the moderated t-test in comparison with those of the BLM_vehicle group were defined as “DEGs by Compound A treatment”. DEGs were inputted into IPA and two types of calculations were performed: “Canonical pathways” and “Diseases or functions”. Here, “Canonical pathways” is described as “pathways” and “Diseases or functions” is described as “category”. The former contains a list for a series of gene interactions and the latter is a list related to diseases and biological functions. These datasets are registered in the IPA software. Initially, the Fisher's exact test was used to calculate the probability of overlap between two sets of genes. Thereafter, downstream effect analysis (DSEA) was used to calculate the activation z-score. DSEA is a technique for predicting the direction of change in expression patterns (either activation or inhibition) based on the expected causal effects between genes and functions. Based on the results of the DSEA analysis, information about the cell type (macrophages, neutrophils, mononuclear leukocytes, T-lymphocytes, B-lymphocytes, smooth muscle cells, endothelial cells, epithelial cells, and fibroblasts) that may be involved in the pathogenesis of SSc was extracted. Subsequently, information regarding biological functions and molecular signaling pathways, such as inflammation/immune abnormality, vascular dysfunction, and fibrosis, involved in the pathogenesis of SSc are extracted.
DNA microarray analysis was carried out using lung samples from a BLM-induced SSc model (prevention model) to which 0.3 mg/kg of Compound A was administered. Bioinformatics analysis was carried out using IPA software, and two datasets were used to perform two types of calculations (“Canonical pathways” and “Diseases or functions”). Downstream effect analysis was used to calculate the activation z-score.

Where [3] appears, read: Compound A at ≥0.3 mg/kg orally once daily day 0-28, measured day 29.
The mark [4] stands for this setting: Compound A at ≥0.3 mg/kg orally once daily day 0-28, measured day 29, relative to Hprt.

As for `COC[C@H]1CN(C(=O)[C@]2(F)CN(C3CCCC3)C[C@H]2c2ccc(OC)cc2)C[C@@H]1c1ccc(C(F)(F)F)cc1N1CCC(C(=O)O)CC1` [Compound A, 1-{2-[(3S,4R)-1-{[(3R,4R)-1-cyclopentyl-3-fluoro-4-(4-methoxyphenyl)pyrrolidin-3-yl]carbonyl}-4-(methoxymethyl)pyrrolidin-3-yl]-5-(trifluoromethyl)phenyl}piperidine-4-carboxylic acid], in experiment [1] (setting [3]), the “BLM-induced increase of collagen content of the skin” value is on record as “inhibited significantly”, the “BLM-induced increase of serum concentration of ET-1” value is recorded as “inhibited significantly”, the “BLM-induced increase of serum level of SP-D” value is on record as “inhibited significantly” and the “BLM-induced increase of wet weight of the left lung” value is listed as “inhibited significantly”. In addition, in experiment [1] (setting [4]), the “BLM-induced increase of IL-6 mRNA expression in the lung” value is recorded as “inhibited significantly” and the “BLM-induced increase of Mcp-1 mRNA expression in the lung” value is on record as “inhibited significantly”. Besides, the “BLM-induced decrease of body weight” value in experiment [1] (Compound A at ≥0.3 mg/kg orally once daily, day 0 to day 29) is “significantly improved”. The “gene expression fluctuation induced by BLM in IL-6 pathway genes (upstream and downstream)” value in experiment [2] was “reversed”. Further, in experiment [2] (IPA canonical pathways), the IL-6 signaling pathway entry was “affected”, the PPAR signaling pathway entry is reported as “affected”, the TREM1 signaling pathway entry is recorded as “affected” and the “oncostatin M signaling pathway” value is “affected”. In addition, in experiment [2] (IPA downstream effect analysis), the “category activation of antigen-presenting cells (activated by BLM)” value is recorded as “suppressed”, the “category angiogenesis (activated by BLM)” value is on record as “suppressed”, the “category atherosclerosis (activated by BLM)” value is listed as “suppressed” and the “category inflammatory response (activated by BLM)” value is “suppressed”. In addition, in experiment [2] (IPA downstream effect analysis), the “category vasculogenesis (activated by BLM)” value was “suppressed” and the “category vaso-occlusion (activated by BLM)” value is on record as “suppressed”. Moreover, in experiment [2] (among 3337 DEGs in the disease model), the “number of DEGs by Compound A treatment (≥1.5 fold in opposite direction, p<0.05 vs BLM_vehicle)” value was 1477. In experiment [2] (not changed by BLM), the “T-lymphocyte-related categories (IPA activation z-score)” value is given as “suppressed” and the “endothelial cell-related categories (IPA activation z-score)” value was “suppressed”. Besides, in experiment [2] (remarkably upregulated by BLM), the “expression of the IL-6 gene among component genes of the IL-6 signaling pathway” value was “downregulated the most”.
